Results reported in US11259956B2, “Combination therapy intravaginal rings” (International Partnership For Microbicides, Inc., priority 2013, dated 2022).

Legend:
[1] = system: wild-type HIV-1 strains and HIV-1 strains harboring different resistance-inducing mutations; settings: Das et al., J. Med Chem., 2004; cited from earlier work
[2] = Solubility of dapivirine in water; format: physicochemical

Cc1cc(C)c(Nc2ccnc(Nc3ccc(C#N)cc3)n2)c(C)c1 [dapivirine, 4-[[4-[(2,4,6-trimethylphenyl)amino]-2-pyrimidinyl]amino]benzonitrile]
Activity against HIV-1 strains [1]: potent activity | Solubility in water [2]: virtually insoluble in water | solubility [2]: < 1 µg/mL
